Legend:
Type in all cases: cell-based
BPAE cells = test: Specificity of ROS signal: superoxide scavenger in menadione-treated BPAE cells (Example 8); conditions: 100 μM MnTBAP, last 30 min; 100 μM Menadione 1 h; Far Red ROS Sensor readout
Description: (§1) BPAE cells or RAW macrophages were plated in 96-well plates. BPAE cells were treated with or without 100 μM Menadione for 1 h. 100 μM of superoxide scavenger, MnTBAP was added to some of the control and menadione-treated wells for the last 30 min of incubation. RAW cells were treated with or without 500 ng/mL of Lipopolysachharide (LPS) with or without Diphenylenelodinium (DPI), an NADPH oxidase inhibitor.

Live Jurkat cells = test: Flow cytometry of ROS formation in live Jurkat cells (Example 4); conditions: 100 μM Menadione or 500 nM PMA, 1 hr; 5 μM Far Red ROS Sensor 30 min; 635 nm excitation, emission 650-670 nm
Description: Live Jurkat cells were treated with or without either 100 μM Menadione or 500 nM phorbol myristate acetate (PMA) for 1 hr. The cells were stained with 5 μM Far Red ROS Sensor and Hoechst 33342 for 30 mins. The cells were washed 3 times with PBS and then analyzed at approximately 400 events per second on a BD® LSR II flow cytometer (Beckton Dickinson, Franklin Lakes, N.J.) with 635 nm laser excitation and fluorescence emission collected from 650-670 nm.

HepG2 cells = test: Multiplexed measurement of oxidative stress, cytotoxicity and apoptosis in HepG2 cells (Example 10); conditions: 50 μM Nefazodone 24 h
Description: For the last 30 min of Nefazodone treatment, the cells were either stained with 5 μM Far Red ROS Sensor and 20 nM Image-IT® DEAD Green™ viability stain (Life Technologies Corp., Carlsbad, Calif.), FIG. 10a) or 5 μM Far Red ROS Sensor and 5 μM fluorogenic CaspaGreen caspase substrate (FIG. 10b). […] Image-iT® DEAD Green™ measures plasma membrane permeability, a marker for cytotoxicity.

RAW macrophages = test: Specificity of ROS signal: NADPH oxidase inhibitor in LPS-treated RAW cells (Example 8); conditions: 500 ng/mL LPS; Far Red ROS Sensor readout
Description: as §1

Structure (SMILES): O=C(O)c1ccc(/C2=C3\C=CC(=N3)/C(c3ccc(C(=O)O)cc3)=c3/cc/c4[n]3[Mn]([Cl])[n]3c2ccc3/C(c2ccc(C(=O)O)cc2)=C2/C=CC(=N2)\C=4c2ccc(C(=O)O)cc2)cc1 [MnTBAP]
- effect on ROS caused by Menadione (BPAE cells): inhibited ROS

Structure (SMILES): CC1=CC(=O)c2ccccc2C1=O [Menadione]
- ROS formation after treatment (Live Jurkat cells): increase in ROS formation

Structure (SMILES): CCc1nn(CCCN2CCN(c3cccc(Cl)c3)CC2)c(=O)n1CCOc1ccccc1 [Nefazodone]
- apoptosis (fluorogenic CaspaGreen caspase substrate) (HepG2 cells; 5 μM CaspaGreen caspase substrate): increased nuclear staining
- oxidative stress (Far Red ROS Sensor) (HepG2 cells; 5 μM Far Red ROS Sensor): causes oxidative stress

Structure (SMILES): CCCCCCCCCCCCCC(=O)O[C@@H]1[C@@H](C)[C@@]2(O)[C@@H](C=C(CO)C[C@]3(O)C(=O)C(C)=C[C@@H]23)[C@@H]2C(C)(C)[C@]12OC(C)=O [PMA, phorbol myristate acetate]
- ROS formation after treatment (Live Jurkat cells): increase in ROS formation

Structure (SMILES): c1ccc2c(c1)[I+]c1ccccc1-2 [DPI, Diphenylenelodinium]
- effect on ROS caused by LPS (RAW macrophages): inhibited ROS
